Consider two sequences from publication PMC8704389, “New Insights into the Hypotensins from Tityus serrulatus Venom: Pro-Inflammatory and Vasopeptidases Modulation Activities” (Toxins, 2021).

No end group written: not given here.

Data set [1] concerns murine peritoneal macrophages. Kind of data set: Cell viability of murine peritoneal macrophages, MTT method. It is filed as cell-based, BALB/c mice. Conditions: 24 h. The method, then: Figure 3 Cytotoxic effect of hypotensins I and II on murine peritoneal macrophages in vitro. Peritoneal exudate macrophages from naïve BALB/c mice were cultured for 24 h in the presence of TsHpt-I (A) and -II (B) at concentrations of 10 µg/mL, 50 µg/mL and 100 µg/mL. Cells cultured with medium alone or in the presence of 5 µg/mL LPS were used as the controls. Cell viability was determined by the MTT method. The results represent the mean ± SD of two independent experiments performed in triplicate. * p < 0.05.
(§1) Peritoneal exudate cells (BALB/c naïve mice, n = 6) were collected by two washes with 5 mL of RPMI medium. The cells obtained were washed twice with RMPI medium, at 400 g, for 10 min, at 18 °C, and resuspended in R10 medium (RPMI + 10% fetal cow serum). After counting in a Neubauer chamber, in the presence of Trypan blue, the cell concentration was adjusted to 2 × 10^6 cells/mL. Cells were distributed into 96-well culture plates (2 × 10^5 cells/100 µL/well) and incubated for 2 h at 37 °C and 5% CO2. After incubation, non-adherent cells were discarded, and adherent cells (macrophages) were resuspended in R10 medium containing the respective tested stimuli, at different concentrations, in triplicates, in a final volume of 200 µL/well. Cells resuspended in R10 medium were used as a negative control, and cells stimulated with LPS (5 µg/mL) as a positive control. Cells were then incubated for 24 h at 37 °C and 5% CO2. After this period, the culture supernatants were collected and stored at −80 °C, for subsequent dosage of cytokines, and cell viability was determined by MTT assay.
After a 24-h period of incubation of cells with hypotensins (10 µg/mL, 50 µg/mL and 100 µg/mL), MTT assays were performed, consisting of the addition of 100 µL of R10 containing 0.5 mg/mL of tetrazolium salt 3-(4.5-dimethylthiazol-2-yl)-2,5-diphenyltetrazolium bromide (MTT) in all wells, followed by a new incubation, under the same conditions, for 4 h. Then, the supernatants were discarded, and 100 µL/well of DMSO were added to dissolve the formed crystals. Absorbance was determined in a spectrophotometer at 540 nm. Cell viability was calculated based on the absorbances of the samples and the negative control (cells cultivated only with R10).
(In general: Tetrazolium dyes change colour on reduction, which living cells bring about.)

Data set [2] deals with murine peritoneal macrophages. Kind of data set: Cytokine production by murine peritoneal macrophages, CBA method. It is filed as cell-based, BALB/c mice. The conditions noted are these: 24 h; for release of IL-10, IL-12p70, IFN-γ and MCP-1: 10, 50 and 100 µg/mL, data not shown. The method, then: Figure 4 Cytokine production by murine peritoneal macrophages stimulated in vitro with TsHpt-I and -II. Peritoneal exudate macrophages from naïve BALB/c mice were cultured for 24 h in the presence of TsHpt-I (A,C) and -II (B,D), at concentrations of 10 µg/mL, 50 µg/mL and 100 µg/mL. Cells cultured with medium alone or in the presence of 5 µg/mL LPS were used as negative and positive controls, respectively. The concentrations of TNF (A,B) and IL-6 (C,D) were determined by the CBA method, according to the manufacturer’s instructions. The results represent the mean ± SD of three independent experiments performed in triplicate. * p < 0.05.
as §1
The concentration of pro- and anti-inflammatory cytokines (IL-6, IL-10, IL-12p70, […], MCP-1 and TNF) in the samples incubated with both hypotensins (10 µg/mL, 50 µg/mL and 100 µg/mL) was determined by the CBA method (BD Cytometric Bead Array Mouse Inflammation Kit), according to the manufacturer’s instructions. The samples were acquired in a BD FACSCanto II flow cytometer, and the data were analyzed using BD FCAP Array version 3.0 software.

The next data set concerns the target T1, NEP (Homo sapiens, UniProt P08473).
T1 construct: gift of Prof; Adriana Carmona, Department of Biophysics, UNIFESP-EPM
Nature of the data set: Characterization of NEP inhibition (Ki and mechanism, Lineweaver-Burk). Format: biochemical. The method, then: Figure 2 Lineweaver–Burk plot of NEP inhibition by TsHpt-I. The inhibition constant (Ki) was determined using four Abz-RGFK-EDDnp substrate concentrations (4 μM, 6 μM, 8 μM and 10 μM), with variation in the concentration of TsHpt-I (3 μM and 4 μM), keeping the amount of enzyme fixed (1.5 ng). The experiment was performed in triplicate.
To determine the inhibition constant (Ki) of TsHpt-I over NEP, four concentrations of Abz-RGFK (Dnp)-OH (4 µM, 6 µM, 8 µM and 10 µM) and 3 µM and 4 µM of TsHpt-I were tested using 1.5 ng of peptidase in 100 µL of final volume of Tris HCl pH 7.5. The Km value of the substrate used was determined to be 14 µM [27]. Controls without the TsHpt-I were also performed in all assays. The reactions were monitored as described above (item 5.2). The Lineweaver–Burk plot was constructed (1/V × 1/(S)) according to the presented mechanism. The Ki was calculated as described by Segel. All assays were performed in triplicate.

In a further data set the test system is normotensive Wistar rats. Conditions: by potentiating bradykinin; cited from earlier work. The text has this: Among the linear peptides we have the hypotensins (TsHpt), identified from TsV proteomic analyzes. Both peptides are made up of 25 amino acid residues that contain two consecutive prolines in their C-terminal portion and a punctual difference between TsHpt-I and -II, which is the residue at position 15, being a glutamine in TsHpt-I and a glutamic acid in TsHpt-II. […] The hypothesis is that the vasodilation effect is related to the releas ...

[3] abbreviates: 10 µg/mL, control (medium) = 100%, two independent experiments in triplicate.
[4] abbreviates: 100 µg/mL, three independent experiments in triplicate.

T1 sequence (P08473 2-750): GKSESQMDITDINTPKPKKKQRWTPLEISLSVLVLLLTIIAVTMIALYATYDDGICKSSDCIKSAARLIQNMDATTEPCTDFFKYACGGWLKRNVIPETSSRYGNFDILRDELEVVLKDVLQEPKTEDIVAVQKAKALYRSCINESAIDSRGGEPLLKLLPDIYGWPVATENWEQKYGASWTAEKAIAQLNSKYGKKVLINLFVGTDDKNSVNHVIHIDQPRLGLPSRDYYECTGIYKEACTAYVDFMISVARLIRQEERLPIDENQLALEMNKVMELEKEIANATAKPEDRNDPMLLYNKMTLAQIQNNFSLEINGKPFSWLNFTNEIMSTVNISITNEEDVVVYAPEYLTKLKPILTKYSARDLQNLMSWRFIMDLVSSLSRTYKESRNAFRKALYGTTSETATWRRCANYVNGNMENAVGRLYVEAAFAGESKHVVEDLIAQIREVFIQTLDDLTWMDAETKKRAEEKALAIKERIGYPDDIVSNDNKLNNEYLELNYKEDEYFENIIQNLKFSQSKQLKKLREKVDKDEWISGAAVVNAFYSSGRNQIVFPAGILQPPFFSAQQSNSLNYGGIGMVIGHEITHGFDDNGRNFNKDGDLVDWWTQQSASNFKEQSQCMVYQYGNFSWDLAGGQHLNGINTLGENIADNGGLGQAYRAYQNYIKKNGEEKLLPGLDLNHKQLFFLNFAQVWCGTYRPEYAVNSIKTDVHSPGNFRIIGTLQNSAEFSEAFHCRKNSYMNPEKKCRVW

As to AEIDFSGIPEDIIKEIKETNAKPPA [TsHpt-II], the cell viability entry in data set [1] (setting [3]) is listed as “about 75%”; in data set [1] (100 µg/mL) it was “not able to decrease cellular viability”. In addition, in data set [2] (setting [4]), the “release of IL-6” value is on record as “induced the release of IL-6”. Further, the “release of TNF” value in data set [2] (setting [4]) was “release of significant levels of TNF”. Further, the “release of IL-10, IL-12p70, IFN-γ and MCP-1” value in data set [2] is “None of the peptides were able to induce the release”.

Usually Ki stands for a dissociation constant, usually derived from enzyme kinetics or from competition with a known ligand. The low end stands for higher affinity, the high end for lower affinity. Sequence AEIDFSGIPEDIIKQIKETNAKPPA [TsHpt-I] returned a Ki at NEP of 4.35 µM. In addition, the “mechanism of inhibition of NEP” value on NEP (Lineweaver-Burk plot, triplicate) is reported as “non-competitive inhibitor”. The cell viability result was “about 75%” in data set [1] (setting [3]) and “not able to decrease cellular viability” in data set [1] (100 µg/mL). In addition, the “release of TNF” value in data set [2] (setting [4]) is recorded as “release of significant levels of TNF”. Besides, the “release of IL-10, IL-12p70, IFN-γ and MCP-1” value in data set [2] is “None of the peptides were able to induce the release”. In addition, the hypotensive activity result with normotensive Wistar rats is listed as “able to exert hypotensive activity”.
